# Reference: ChEMBL document CHEMBL1149393, “Single-site chemical modification at C10 of the baccatin III core of paclitaxel and Taxol C reduces P-glycoprotein interactions in bovine brain microvessel endothelial cells” (Bioorg Med Chem Lett, 2006)
# Assays:
# Tubulin (Homo sapiens) [1] = molecular target: T1, Tubulin (Homo sapiens) (UniProt P68371+Q9H4B7+P0DPH7+P68366+Q13509+Q71U36+P04350+Q3ZCM7+P07437+P68363+Q9BQE3+Q6PEY2+Q13885+Q9BVA1+Q9BUF5); assay: Cytotoxicity against multidrug resistant breast cancer MCF7/ADR cell line relative to paclitaxel; format: functional, cell-based; settings: NCI/ADR-RES
# Tubulin (Homo sapiens) [2] = molecular target: T1, Tubulin (Homo sapiens); assay: Activity in tubulin assembly assay relative to paclitaxel; format: functional
# Tubulin (Homo sapiens) [3] = molecular target: T1, Tubulin (Homo sapiens); assay: Cytotoxicity against human breast cancer MCF7 cell line relative to paclitaxel; format: functional, cell-based
# MCF7 = assay: Cytotoxicity against human breast cancer MCF7 cell line; format: functional; settings: read-out: ED50 (the source's name)
# NCI/ADR-RES = assay: Cytotoxicity against multidrug resistant breast cancer MCF7/ADR cell line; format: functional; settings: Homo sapiens, read-out: ED50 (the source's name)
SMILES,Ratio ED50 (Tubulin (Homo sapiens) [1]),Ratio ED50 (Tubulin (Homo sapiens) [2]),Ratio ED50 (Tubulin (Homo sapiens) [3]),EC50 (MCF7) [nM],EC50 (NCI/ADR-RES) [nM]
CCCCCC(=O)N[C@@H](c1ccccc1)[C@@H](O)C(=O)O[C@H]1C[C@@]2(O)[C@@H](OC(=O)c3ccccc3)[C@@H]3[C@]4(OC(C)=O)CO[C@@H]4C[C@H](O)[C@@]3(C)C(=O)[C@@H](OC(=O)CC)C(=C1C)C2(C)C,2.9,2.1,3.8,,
CC(=O)O[C@@]12CO[C@@H]1C[C@H](O)[C@@]1(C)C(=O)[C@@H](O)C3=C(C)[C@@H](OC(=O)[C@H](O)[C@@H](NC(=O)c4ccccc4)c4ccccc4)C[C@@](O)([C@@H](OC(=O)c4ccccc4)[C@H]21)C3(C)C,0.7,3.2,1.4,,
CCCCCC(=O)N[C@@H](c1ccccc1)[C@@H](O)C(=O)O[C@H]1C[C@@]2(O)[C@@H](OC(=O)c3ccccc3)[C@@H]3[C@]4(OC(C)=O)CO[C@@H]4C[C@H](O)[C@@]3(C)C(=O)[C@@H](OC(C)=O)C(=C1C)C2(C)C,1.6,0.21,3.2,,
CCCCCC(=O)N[C@@H](c1ccccc1)[C@@H](O)C(=O)O[C@H]1C[C@@]2(O)[C@@H](OC(=O)c3ccccc3)[C@@H]3[C@]4(OC(C)=O)CO[C@@H]4C[C@H](O)[C@@]3(C)C(=O)[C@H](OC(C)=O)C(=C1C)C2(C)C,0.48,2,2.2,,
CCC(=O)O[C@@H]1C(=O)[C@@]2(C)[C@H]([C@H](OC(=O)c3ccccc3)[C@]3(O)C[C@H](OC(=O)[C@H](O)[C@@H](NC(=O)c4ccccc4)c4ccccc4)C(C)=C1C3(C)C)[C@]1(OC(C)=O)CO[C@@H]1C[C@@H]2O,1.1,4.1,2.6,,
CCCCCC(=O)N[C@@H](c1ccccc1)[C@@H](O)C(=O)O[C@H]1C[C@@]2(O)[C@@H](OC(=O)c3ccccc3)[C@@H]3[C@]4(OC(C)=O)CO[C@@H]4C[C@H](O)[C@@]3(C)C(=O)[C@H](O)C(=C1C)C2(C)C,3.8,2.2,4.8,,
CC(=O)O[C@@H]1C(=O)[C@@]2(C)[C@H]([C@H](OC(=O)c3ccccc3)[C@]3(O)C[C@H](OC(=O)[C@H](O)[C@@H](NC(=O)c4ccccc4)c4ccccc4)C(C)=C1C3(C)C)[C@]1(OC(C)=O)CO[C@@H]1C[C@@H]2O,1.3,0.8,0.7,,
CCCCCC(=O)N[C@@H](c1ccccc1)[C@@H](O)C(=O)O[C@H]1C[C@@]2(O)[C@@H](OC(=O)c3ccccc3)[C@@H]3[C@]4(OC(C)=O)CO[C@@H]4C[C@H](O)[C@@]3(C)C(=O)[C@@H](O)C(=C1C)C2(C)C,3.1,1.6,9.2,,
CC(=O)O[C@H]1C(=O)[C@@]2(C)[C@H]([C@H](OC(=O)c3ccccc3)[C@]3(O)C[C@H](OC(=O)[C@H](O)[C@@H](NC(=O)c4ccccc4)c4ccccc4)C(C)=C1C3(C)C)[C@]1(OC(C)=O)CO[C@@H]1C[C@@H]2O [PACLITAXEL],,1,,3.23,1.53
CC(=O)O[C@@]12CO[C@@H]1C[C@H](O)[C@@]1(C)C(=O)[C@H](O)C3=C(C)[C@@H](OC(=O)[C@H](O)[C@@H](NC(=O)c4ccccc4)c4ccccc4)C[C@@](O)([C@@H](OC(=O)c4ccccc4)[C@H]21)C3(C)C,6.6,2.1,7.5,,
